Measured values published in US20240158446A1, “CYCLIC COMPOUND HAVING SELECTIVE INHIBITORY ACTION ON KRAS OVER HRAS AND NRAS” (CHUGAI SEIYAKU KABUSHIKI KAISHA, priority 2021, published 2024).
*1 amine or outer side, *2 acyl side, *3 side chain or, on linkers, in order; H or OH if unused. Where a SMILES comes first, the peptide text is derived from it. Bridges are numbered along the chain shown (N, C = ends). [ ]: non-standard residue; d: D form. The star is where a group is joined. X47 = CC(C)(C)CCN([C@@H](Cc1ccc(C(F)(F)F)cc1)C(=O)[*:2])[*:1]; hPhe(3-Cl-4-CF3) = N[C@@H](CCc1ccc(C(F)(F)F)c(Cl)c1)C(=O)O; NPrPhe(4-CF3) = CCCN[C@@H](Cc1ccc(C(F)(F)F)cc1)C(=O)O; 3Oxa8azabicyclo(3.2.1)octane = C1CC2COCC1N2*; NMeGly(cPent) = CN[C@H](C(=O)O)C1CCCC1; NMeD = CN[C@@H](CC(=O)O)C(=O)O; NMeL = CN[C@@H](CC(C)C)C(=O)O; Morpholide = C1CN(*)CCO1; NMeA = CN[C@@H](C)C(=O)O; Ac5c = NC1(C(=O)O)CCCC1; Aze = O=C(O)[C@@H]1CCN1; Sar = CNCC(=O)O

Legend:
[1] = biological target: GDP-bound HRAS wild-type protein (Homo sapiens, UniProt P01112); assay: Binding to HRAS by surface plasmon resonance (SPR), Single Cycle Kinetics; conditions: SPR, GDP-bound HRAS wild-type protein vs GDP-bound KRAS wild-type protein
[2] = biological target: GDP-bound NRAS wild-type protein (Homo sapiens, UniProt P01111); assay: Binding to NRAS by surface plasmon resonance (SPR), Single Cycle Kinetics; conditions: SPR, GDP-bound NRAS wild-type protein vs GDP-bound KRAS wild-type protein
Chain of GDP-bound NRAS wild-type protein (P01111 whole entry): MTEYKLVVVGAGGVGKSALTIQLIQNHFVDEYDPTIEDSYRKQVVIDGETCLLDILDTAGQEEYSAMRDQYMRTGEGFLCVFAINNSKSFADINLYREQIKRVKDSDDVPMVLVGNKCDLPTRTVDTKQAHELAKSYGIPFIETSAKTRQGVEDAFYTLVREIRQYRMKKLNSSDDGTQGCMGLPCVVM

Chain of GDP-bound HRAS wild-type protein (P01112 whole entry): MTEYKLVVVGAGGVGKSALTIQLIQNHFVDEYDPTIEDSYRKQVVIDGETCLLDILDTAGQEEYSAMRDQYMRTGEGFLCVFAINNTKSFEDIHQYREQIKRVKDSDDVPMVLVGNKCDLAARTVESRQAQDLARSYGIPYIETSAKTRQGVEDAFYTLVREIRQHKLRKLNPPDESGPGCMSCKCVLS

| SMILES | HRAS/KRAS (ratio of KD value for HRAS to KD value for KRAS) [1] | NRAS/KRAS (ratio of KD value for NRAS to KD value for KRAS) [2] | HRAS/KRAS (ratio of KD value with respect to HRAS to KD value with respect to KRAS) [1] | NRAS/KRAS (ratio of KD value with respect to NRAS to KD value with respect to KRAS) [2] |
| --- | --- | --- | --- | --- |
| CC[C@H](C)[C@@H]1NC(=O)[C@H](CC(C)C)N(C)C(=O)C[C@@H](C(=O)N2CCOCC2)N(C)C(=O)[C@H](C2CCCC2)N(C)C(=O)C2(CCCC2)NC(=O)[C@@H]2CCCN2C(=O)[C@H](CCc2ccc(C(F)(F)F)c(Cl)c2)NC(=O)CN(C)C(=O)[C@H](Cc2ccc(C(F)(F)F)cc2)N(CCC(C)(C)C)C(=O)CN(C)C(=O)CN(C)C1=O [PP0127] ([NMeL]I[Sar][Sar][X47][Sar][hPhe(3-Cl-4-CF3)]P[Ac5c][NMeGly(cPent)][NMeD]-Morpholide; lactam N-11) | C (A compound having a KD ratio of 0.1 or more and less than 3 is denoted as C) | C (A compound having a KD ratio of 0.1 or more and less than 3 is denoted as C) |  |  |
| CCCN1C(=O)[C@@H]2CCN2C(=O)[C@H](C)N(C)C(=O)[C@H]([C@@H](C)CC)NC(=O)[C@H](CC(C)C)N(C)C(=O)C[C@@H](C(=O)N2C3CCC2COC3)N(C)C(=O)[C@H](C2CCCC2)N(C)C(=O)C2(CCCC2)NC(=O)[C@@H]2CCCN2C(=O)[C@H](CCc2ccc(C(F)(F)F)c(Cl)c2)NC(=O)CN(C)C(=O)[C@@H]1Cc1ccc(C(F)(F)F)cc1 [PP0182] ([NMeL]I[NMeA][Aze][NPrPhe(4-CF3)][Sar][hPhe(3-Cl-4-CF3)]P[Ac5c][NMeGly(cPent)][NMeD]-{3Oxa8azabicyclo(3.2.1)octane}; lactam N-11) | B (a compound having 3 or more and less than 10 is denoted as B) | C (A compound having a KD ratio of 0.1 or more and less than 3 is denoted as C) |  |  |
| CCO[C@@H]1C[C@H]2C(=O)NC3(CCC3)C(=O)N(C)[C@@H](C3CCCC3)C(=O)N(C)[C@H](C(=O)N(C)C)CC(=O)N(C)[C@@H](CC(C)C)C(=O)N[C@@H]([C@@H](C)CC)C(=O)N(C)CC(=O)N(C)[C@H]3CCCCCN(C3=O)[C@@H](Cc3ccc(C(F)(F)F)cc3)C(=O)N(C)CC(=O)N[C@@H](CCc3cc(F)c(C(F)(F)F)c(F)c3)C(=O)N2C1 [PP0469] |  |  | B (a compound having 3 or more and less than 10 is denoted as B) | B (a compound having 3 or more and less than 10 is denoted as B) |
| CC[C@H](C)[C@@H]1NC(=O)[C@H](CC(C)C)N(C)C(=O)C[C@@H](C(=O)N2CCOCC2)N(C)C(=O)[C@H](C2CCCC2)N(C)C(=O)[C@](C)(CC)NC(=O)[C@@H]2CCCN2C(=O)[C@H](CCc2cc(F)c(C(F)(F)F)c(F)c2)NC(=O)CN(C)C(=O)[C@H](Cc2ccc(C(F)(F)F)cc2)N2CCCCC[C@@H](C2=O)N(C)C(=O)CN(C)C1=O [PP0500] |  |  | B (a compound having 3 or more and less than 10 is denoted as B) | B (a compound having 3 or more and less than 10 is denoted as B) |
| CC[C@H](C)[C@@H]1NC(=O)[C@H](CC(C)C)N(C)C(=O)C[C@@H](C(=O)N2CCOCC2)N(C)C(=O)[C@H](C2CCCC2)N(C)C(=O)C2(COC2)NC(=O)[C@@H]2CCCN2C(=O)[C@H](CCc2cc(F)c(C(F)(F)F)c(F)c2)NC(=O)CN(C)C(=O)[C@H](Cc2ccc(C(F)(F)F)cc2)N2CCCCC[C@@H](C2=O)N(C)C(=O)CN(C)C1=O [PP0501] |  |  | B (a compound having 3 or more and less than 10 is denoted as B) | B (a compound having 3 or more and less than 10 is denoted as B) |
| CC[C@H](C)[C@@H]1NC(=O)[C@H](CC(C)C)N(C)C(=O)C[C@@H](C(=O)N2CCOCC2)N(C)C(=O)[C@H](C2CCC2)N(C)C(=O)C2(CCCC2)NC(=O)[C@@H]2CCCN2C(=O)[C@H](CCc2cc(F)c(C(F)(F)F)c(F)c2)NC(=O)CN(C)C(=O)[C@H](Cc2ccc(C(F)(F)F)cc2)N2CCCCC[C@@H](C2=O)N(C)C(=O)CN(C)C1=O [PP0504] |  |  | B (a compound having 3 or more and less than 10 is denoted as B) | B (a compound having 3 or more and less than 10 is denoted as B) |
| CC[C@H](C)[C@@H]1NC(=O)[C@H](CC(C)C)N(C)C(=O)C[C@@H](C(=O)N2C3CCC2COC3)N(C)C(=O)[C@H](C2CCCC2)N(C)C(=O)C2(CCCC2)NC(=O)[C@@H]2CCCN2C(=O)[C@H](CCc2cc(F)c(C(F)(F)F)c(F)c2)NC(=O)CN(C)C(=O)[C@H](Cc2ccc(C(F)(F)F)cc2)N2CCCCC[C@@H](C2=O)N(C)C(=O)CN(C)C1=O [PP0511] |  |  | B (a compound having 3 or more and less than 10 is denoted as B) | A (a compound having 10 or more and less than 20 is denoted as A) |
| CC[C@H](C)[C@@H]1NC(=O)[C@H](CC)N(C)C(=O)C[C@@H](C(=O)N2CCOCC2)N(C)C(=O)[C@H](C2CCCC2)N(C)C(=O)C2(CCCC2)NC(=O)[C@@H]2CCCN2C(=O)[C@H](CCc2cc(F)c(C(F)(F)F)c(F)c2)NC(=O)CN(C)C(=O)[C@H](Cc2ccc(C(F)(F)F)cc2)N2CCCC[C@@H](C2=O)N(C)C(=O)CN(C)C1=O [PP0550] |  |  | B (a compound having 3 or more and less than 10 is denoted as B) | B (a compound having 3 or more and less than 10 is denoted as B) |
| CC[C@H](C)[C@@H]1NC(=O)[C@H](CC(C)C)N(C)C(=O)C[C@@H](C(=O)N2CCOCC2)N(C)C(=O)[C@H](C2CCCC2)N(C)C(=O)C2(CCCC2)NC(=O)[C@@H]2CCCN2C(=O)[C@H](CCc2cc(F)c(C(F)(F)F)c(F)c2)NC(=O)CN(C)C(=O)[C@H](Cc2ccc(C(F)(F)F)cc2)N2CCCC[C@@H](C2=O)N(C)C(=O)[C@H](CC)N(C)C1=O [PP0551] |  |  | B (a compound having 3 or more and less than 10 is denoted as B) | C (A compound having a KD ratio of 0.1 or more and less than 3 is denoted as C) |
| CC[C@H](C)[C@@H]1NC(=O)[C@H](CC(C)C)N(C)C(=O)C[C@@H](C(=O)N2C3CCC2COC3)N(C)C(=O)[C@H](C2CCCC2)N(C)C(=O)C2(CCCC2)NC(=O)[C@@H]2CCCN2C(=O)[C@H](CCc2cc(F)c(C(F)(F)F)c(F)c2)NC(=O)CN(C)C(=O)[C@H](Cc2ccc(C(F)(F)F)cc2)N2CCCC[C@@H](C2=O)N(C)C(=O)CN(C)C1=O [PP0573] |  |  | B (a compound having 3 or more and less than 10 is denoted as B) | B (a compound having 3 or more and less than 10 is denoted as B) |
| CC[C@H](C)[C@@H]1NC(=O)[C@@H](CC(C)C)N(C)C(=O)C[C@@H](C(=O)N2CCOCC2)N(C)C(=O)[C@H](C2CCCC2)N(C)C(=O)C2(CCCC2)NC(=O)[C@@H]2CCCN2C(=O)[C@H](CCc2cc(F)c(C(F)(F)F)c(F)c2)NC(=O)CN(C)C(=O)[C@H](Cc2ccc(C(F)(F)F)cc2)N2CCCC[C@@H](C2=O)N(C)C(=O)CN(C)C1=O [PP0591] |  |  | B (a compound having 3 or more and less than 10 is denoted as B) | B (a compound having 3 or more and less than 10 is denoted as B) |
| CC[C@H](C)[C@@H]1NC(=O)[C@H](CC(C)C)N(C)C(=O)C[C@@H](C(=O)N(C)C)N(C)C(=O)[C@H](C2CCCC2)N(C)C(=O)C2(CCCC2)NC(=O)[C@@H]2CCCN2C(=O)[C@H](CCc2ccc(C(F)(F)F)c(Cl)c2)NC(=O)CN(C)C(=O)[C@H](Cc2ccc(C(F)(F)F)cc2)N2CC=CCOC[C@H](C2=O)N(C)C(=O)CN(C)C1=O [PP0628] |  |  | C (A compound having a KD ratio of 0.1 or more and less than 3 is denoted as C) | C (A compound having a KD ratio of 0.1 or more and less than 3 is denoted as C) |
| CC[C@H](C)[C@@H]1NC(=O)[C@H](CC(C)C)N(C)C(=O)C[C@@H](C(=O)N(C)C)N(C)C(=O)[C@H](C2CCCC2)N(C)C(=O)C2(CCCC2)NC(=O)[C@@H]2CCCN2C(=O)[C@H](CCc2ccc(C(F)(F)F)c(Cl)c2)NC(=O)CN(C)C(=O)[C@H](Cc2ccc(C)cc2)N2CC=CCOC[C@H](C2=O)N(C)C(=O)CN(C)C1=O [PP0629] |  |  | C (A compound having a KD ratio of 0.1 or more and less than 3 is denoted as C) | B (a compound having 3 or more and less than 10 is denoted as B) |
| CCO[C@@H]1C[C@H]2C(=O)NC3(CCC3)C(=O)N(C)[C@@H](C3CCCC3)C(=O)N(CC)[C@H](C(=O)N3CCOCC3)CC(=O)N(C)[C@@H](CC(C)C)C(=O)N[C@@H]([C@@H](C)CC)C(=O)N(C)CC(=O)N(C)[C@H]3CCCCCN(C3=O)[C@@H](Cc3ccc(C(F)(F)F)cc3)C(=O)N(C)CC(=O)N[C@@H](CCc3cc(F)c(C(F)(F)F)c(F)c3)C(=O)N2C1 [PP0638] |  |  | B (a compound having 3 or more and less than 10 is denoted as B) | B (a compound having 3 or more and less than 10 is denoted as B) |
| CCO[C@@H]1C[C@H]2C(=O)NC3(CCC3)C(=O)N(C)[C@@H](C3CCCC3)C(=O)N(CCC3CCC3)[C@H](C(=O)N3CCOCC3)CC(=O)N(C)[C@@H](CC(C)C)C(=O)N[C@@H]([C@@H](C)CC)C(=O)N(C)CC(=O)N(C)[C@H]3CCCCCN(C3=O)[C@@H](Cc3ccc(C(F)(F)F)cc3)C(=O)N(C)CC(=O)N[C@@H](CCc3cc(F)c(C(F)(F)F)c(F)c3)C(=O)N2C1 [PP0640] |  |  | B (a compound having 3 or more and less than 10 is denoted as B) | B (a compound having 3 or more and less than 10 is denoted as B) |
